The nature of experiment [1]: DPPH antioxidant activity. The following applies: DPPH method; ascorbic acid's IC50 value normalized to 100%. On the procedure:
The antioxidant activity was assessed by the DPPH (1,1-diphenyl-2-picryl hydrazyl) method employing ascorbic acid as a standard. A 0.1 mM solution of DPPH was freshly prepared in ethanol. Different dilutions (25, 20, 15, 10 and 5 μg/mL) of compounds 1-12 and ascorbic acid were also prepared in ethanol. The test and standard solutions were prepared by adding DPPH solution (2 mL) to the different dilutions (6 mL each) of the compounds 1-12 and ascorbic acid, respectively. The control solution was prepared by adding DPPH solution (2 mL) to ethanol (6 mL). The resultant mixtures were shaken and kept at 25° C. for half an hour. The absorbance of the test, standard, and control solutions was measured at 517 nm using a UV-Visible spectrophotometer. The experiment was performed in triplicate, and the antioxidant activity was calculated using the following equation,
wherein Ac is the absorbance of the control, and As is the absorbance of the test or standard sample. The IC50 values were obtained from the regression analysis.

Another experiment has as its target T1, human COX-2 (Homo sapiens, UniProt P35354).
T1 construct: purchased Cayman Chemicals 560131
T1 sequence (P35354 18-604): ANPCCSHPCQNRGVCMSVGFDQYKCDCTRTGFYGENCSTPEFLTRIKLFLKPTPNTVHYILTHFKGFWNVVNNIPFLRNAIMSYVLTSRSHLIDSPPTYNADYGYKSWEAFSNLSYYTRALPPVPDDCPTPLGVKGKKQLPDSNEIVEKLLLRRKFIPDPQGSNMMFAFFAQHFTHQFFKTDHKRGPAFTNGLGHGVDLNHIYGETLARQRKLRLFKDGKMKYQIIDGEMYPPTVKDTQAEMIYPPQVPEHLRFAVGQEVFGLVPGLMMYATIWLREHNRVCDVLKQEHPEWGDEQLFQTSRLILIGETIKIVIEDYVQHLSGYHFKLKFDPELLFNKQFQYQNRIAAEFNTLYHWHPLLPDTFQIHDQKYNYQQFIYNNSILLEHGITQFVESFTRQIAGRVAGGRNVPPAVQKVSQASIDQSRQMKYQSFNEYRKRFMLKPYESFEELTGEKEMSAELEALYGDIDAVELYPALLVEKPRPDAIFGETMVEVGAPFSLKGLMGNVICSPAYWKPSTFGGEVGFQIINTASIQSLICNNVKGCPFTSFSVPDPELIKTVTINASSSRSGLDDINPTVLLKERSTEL
The experiment is described as follows: In vitro COX-2 inhibitory activity. Format: biochemical. The following applies: for selectivity index: COX-2 over COX-1, selectivity index of celecoxib normalized to 100%; for COX-2 inhibitory activity in comparison to celecoxib: IC50 value of celecoxib normalized to 100%.

The test system of experiment [2] is Aspergillus niger (A. niger, MTCC 281). Put plainly: Antimicrobial activity, serial plate dilution method. Format: cell-based. As to conditions: MTCC281, against A. niger, Sabouraud dextrose medium. On the procedure: (§1) Antimicrobial activity was performed by the serial plate dilution method (Medicinal Chemistry Research, 2017, 26, 1481-1496; Arabian Journal of Chemistry, 2016, 9, 1523-1531) against two Gram-positive bacteria, Staphylococcus aureus (S. aureus, ATCC 25923) and Enterococcus faecalis (E. faecalis, ATCC 29212); two Gram-negative bacteria, Escherichia coli (E. coli, ATCC 25922) and Pseudomonas aeruginosa (P. aeruginosa, ATCC 27853); and two fungi, Candida albicans (C. albicans, ATCC 2091) and Aspergillus niger (A. niger, MTCC 281). Antibacterial activity was performed on nutrient agar medium, whereas Sabouraud dextrose medium was used for the antifungal activity. The compounds 1-12 were tested at 100, 75, 50, 25, and 12.5 μg/mL concentrations. The standard antibiotics, ofloxacin and ketoconazole, were tested at 50, 25, and 12.5 μg/mL concentrations. Sterile dimethyl sulfoxide (DMSO) was used as a solvent for making the desired concentrations of the compounds ofloxacin and ketoconazole. Sterile DMSO also served as a control group. The minimum inhibitory concentrations (MICs) values of the synthesized compounds, ofloxacin and ketoconazole, were determined. The minimum inhibitory concentration (MIC) has been defined as the lowest concentration of a compound that inhibits the visible growth of the microorganisms in the media.

The test system of experiment [3] is Candida albicans (C. albicans, ATCC 2091). The experiment is described as above. Format: cell-based. The following applies: ATCC2091, against C. albicans, Sabouraud dextrose medium. The protocol: as §1
The test system of experiment [4] is Enterococcus faecalis (E. faecalis, ATCC 29212). Described as above. The following applies: ATCC29212, against E. faecalis, nutrient agar medium. It counts as cell-based. The protocol:
as §1

The test system of experiment [5] is Staphylococcus aureus (S. aureus, ATCC 25923). The experiment is described as above. Format: cell-based. The following applies: ATCC25923, against S. aureus, nutrient agar medium. On the procedure:
as §1

In brackets after ≈: the same amount, converted by molar mass.

As a reminder, the MIC is the least concentration at which growth counts as inhibited.

As for `O=C1O[C@H]([C@@H](O)CO)C(O)=C1O` [ascorbic acid, reference compound], the “antioxidant activity in comparison to ascorbic acid” value (“antioxidant activity in comparison” below) in experiment [1] was determined as 100%.
Still for that read-out and setting: for `Cc1c(-n2c(N)c(C#N)c(-c3ccc(-n4nc(-c5ccccc5)ccc4=O)cc3)c(C#N)c2=O)c(=O)n(-c2ccccc2)n1C` [Compound 8, 6-Amino-1-(1,5-dimethyl-3-oxo-2-phenyl-2,3-dihydro-1H-pyrazol-4-yl)-2-oxo-4-(4-(6-oxo-3-phenylpyridazin-1(6H)-yl)phenyl) -1,2-dihydropyridine-3,5-dicarbonitrile] the value was 78.32%.
Consider `N#Cc1c(-c2ccc(-n3nc(-c4ccccc4)ccc3=O)cc2)c(C#N)c(=O)n(-c2ccccn2)c1N` [Compound 6, 6-Amino-2-oxo-4-(4-(6-oxo-3-phenylpyridazin-1(6H) -yl)phenyl)-2H-[1,2′-bipyridine]-3,5-dicarbonitrile], for which, at human COX-2, the selectivity index is reported as 101.61%.
In turn, `N#Cc1c(-c2ccc(-n3nc(-c4ccccc4)ccc3=O)cc2)c(C#N)c(=O)n(-c2nccs2)c1N` [Compound 7, 6-Amino-2-oxo-4-(4-(6-oxo-3-phenylpyridazin-1(6H) -yl)phenyl)-1-(thiazol-2-yl)-1,2-dihydro-pyridine-3,5-dicarbonitrile] gave a selectivity index at human COX-2 of 121.73%.
Take `N#Cc1c(-c2ccc(-n3nc(-c4ccccc4)ccc3=O)cc2)c(C#N)c(=O)n(-c2cccc(C(F)(F)F)c2)c1N` [Compound 9, 6-amino-2-oxo-4-(4-(6-oxo-3-phenylpyridazin-1(6H) -yl)phenyl)-1-(3-(trifluoromethyl)phenyl)-1,2-dihydropyridine-3,5-dicarbonitrile]: the “antioxidant activity in comparison” value in experiment [1] worked out at 70.90%. Moreover, on human COX-2, the selectivity index came to 111.0% and the “COX-2 inhibitory activity in comparison to celecoxib” value worked out at 100.89%. Moreover, the MIC in experiment [2] was 12.5 µg/mL (≈ 22.7 µM). Further, in experiment [3], the lowest concentration to inhibit growth (MIC) was 12.5 µg/mL (≈ 22.7 µM).
`CC1COc2c(N3CCN(C)CC3)c(F)cc3c(=O)c(C(=O)O)cn1c23` (stereo not shown) [ofloxacin, reference compound]: the minimum inhibitory concentration (MIC) in experiment [4] and in experiment [5] was 25 µg/mL (≈ 69.2 µM) throughout.
Regarding `COc1ccccc1-n1c(N)c(C#N)c(-c2ccc(-n3nc(-c4ccccc4)ccc3=O)cc2)c(C#N)c1=O` [Compound 4, 6-Amino-1-(2-methoxyphenyl)-2-oxo-4-(4-(6-oxo-3-phenylpyridazin-1(6H)-yl)phenyl)-1,2-dihydropyridine-3,5-dicarbonitrile], the “antioxidant activity in comparison” value in experiment [1] was determined as 71.95%.
`N#Cc1c(-c2ccc(-n3nc(-c4ccccc4)ccc3=O)cc2)c(C#N)c(=O)n(-c2ccc(S(N)(=O)=O)cc2)c1N` [Compound 10, 4-(6-amino-3,5-dicyano-2-oxo-4-(4-(6-oxo-3-phenylpyridazin-1(6H)-yl)phenyl)pyridin-1(2H)-yl)benzenesulfonamide]: the “antioxidant activity in comparison” value in experiment [1] is given as 74%. On human COX-2, the selectivity index came out at 121.20% and the “COX-2 inhibitory activity in comparison to celecoxib” value is recorded as 105.95%. It took 25 µg/mL (≈ 44.5 µM) to inhibit growth in experiment [4] (MIC). This molecule also displayed an MIC in experiment [5] of 25 µg/mL (≈ 44.5 µM).
As for `CC(=O)N1CCN(c2ccc(OCC3COC(Cn4ccnc4)(c4ccc(Cl)cc4Cl)O3)cc2)CC1` (stereo not shown) [ketoconazole, reference compound], the MIC in experiment [2] and in experiment [3] was 12.5 µg/mL (≈ 23.5 µM) throughout.

The values are drawn from US20250115573A1, “PYRIDAZINE-BASED PYRIDINE DERIVATIVES AS BIOLOGICALLY ACTIVE AGENTS” (priority 2023, published 2025).
